Data from article PMC3598705, “Evaluation of Toxicity and Biodegradability of Cholinium Amino Acids Ionic Liquids” (PLoS ONE, 2013).

Tests used:
Assay in all cases: Antimicrobial activity, tube dilution method
Details in all cases: four repeated experiments; for MIC: 24 h at 37 °C; for MBC: kills 99.9% or more
[1] = system: S. enteritidis ATCC 14128; type: cell-based, Salmonella enteritidis
Experimental: (§1) Antimicrobial activity was measured via the tube dilution method as described previously. Briefly, E. coli, S. aureus, S. enteritidis and L. monocytogenes were cultured in Mueller-Hinton broth for 24 h at 37 °C. A microorganism suspension of 10^6 cfu mL^−1 (cfu, colony forming units) was prepared from each culture. IL solutions (31.3–1500 mM) were prepared with sterilized Mueller-Hinton broth, and then were sterilized by filtration (0.45 µm pore-diameter membrane). The various permutations of microorganism suspension (50 µL) and IL solution (50 µL) were mixed in 96-well microtiter plate. Growth of the microorganisms was determined visually after incubation for 24 h at 37 °C. Controls were conducted under the same conditions: negative controls without microorganisms and positive controls without ILs. The lowest concentration at which there was no visible growth (turbidity) was taken as the minimal inhibitory concentration (MIC). Samples of 20 µL from each well were spread onto Mueller-Hinton agar medium with inactivates (0.3% lecithin, 3% polysorbate 80 and 0.1% L-cysteine) and incubated for 48 h at 37 °C. The lowest concentration of the IL that killed 99.9% or more of the test bacterium was taken as the minimum biocidal concentration (MBC).

E. coli ATCC 8739 = type: cell-based, Escherichia coli
Experimental: as §1

S. aureus ATCC 29213 = type: cell-based, Staphylococcus aureus
Experimental: as §1

[2] = system: L. monocytogenes ATCC 19115; type: cell-based, Listeria monocytogenes
Experimental: as §1

CC(=O)[O-].C[N+](C)(C)CCO [[Ch][AcO], Cholinium acetate, reference compound]
MIC [1]: 750 mM | MBC [1]: 750 mM | MIC (E. coli ATCC 8739): 500 mM | MBC (E. coli ATCC 8739): 750 mM | MIC (S. aureus ATCC 29213): 500 mM | MBC (S. aureus ATCC 29213): 750 mM | MIC [2]: 500 mM | MBC [2]: 750 mM

C[C@H](N)C(=O)[O-].C[N+](C)(C)CCO [[Ch][Ala]]
MIC [1]: 62.5 mM | MBC [1]: 93.8 mM | MIC (E. coli ATCC 8739): 46.9 mM | MBC (E. coli ATCC 8739): 93.8 mM | MIC (S. aureus ATCC 29213): 188 mM | MBC (S. aureus ATCC 29213): 250 mM | MIC [2]: 188 mM | MBC [2]: 250 mM

C[N+](C)(C)CCO.NC(=O)C[C@H](N)C(=O)[O-] [[Ch][Asn]]
MIC [1]: 93.8 mM | MBC [1]: 125 mM | MIC (E. coli ATCC 8739): 93.8 mM | MBC (E. coli ATCC 8739): 125 mM | MIC (S. aureus ATCC 29213): 188 mM | MBC (S. aureus ATCC 29213): 250 mM | MIC [2]: 250 mM | MBC [2]: 250 mM

C[N+](C)(C)CCO.NC(=O)CC[C@H](N)C(=O)[O-] [[Ch][Gln]]
MIC [1]: 93.8 mM | MBC [1]: 125 mM | MIC (E. coli ATCC 8739): 125 mM | MBC (E. coli ATCC 8739): 188 mM | MIC (S. aureus ATCC 29213): 125 mM | MBC (S. aureus ATCC 29213): 188 mM | MIC [2]: 188 mM | MBC [2]: 250 mM

C[N+](C)(C)CCO.NCC(=O)[O-] [[Ch][Gly]]
MIC [1]: 93.8 mM | MBC [1]: 125 mM | MIC (E. coli ATCC 8739): 125 mM | MBC (E. coli ATCC 8739): 250 mM | MIC (S. aureus ATCC 29213): 250 mM | MBC (S. aureus ATCC 29213): 500 mM | MIC [2]: 250 mM | MBC [2]: 500 mM

C[N+](C)(C)CCO.N[C@@H](Cc1cnc[nH]1)C(=O)[O-] [[Ch][His]]
MIC [1]: 46.9 mM | MBC [1]: 62.5 mM | MIC (E. coli ATCC 8739): 46.9 mM | MBC (E. coli ATCC 8739): 62.5 mM | MIC (S. aureus ATCC 29213): 93.8 mM | MBC (S. aureus ATCC 29213): 125 mM | MIC [2]: 93.8 mM | MBC [2]: 125 mM

CSCC[C@H](N)C(=O)[O-].C[N+](C)(C)CCO [[Ch][Met]]
MIC [1]: 31.3 mM | MBC [1]: 62.5 mM | MIC (E. coli ATCC 8739): 31.3 mM | MBC (E. coli ATCC 8739): 62.5 mM | MIC (S. aureus ATCC 29213): 125 mM | MBC (S. aureus ATCC 29213): 250 mM | MIC [2]: 125 mM | MBC [2]: 250 mM

C[N+](C)(C)CCO.O=C([O-])[C@@H]1CCCN1 [[Ch][Pro]]
MIC [1]: 46.9 mM | MBC [1]: 62.5 mM | MIC (E. coli ATCC 8739): 46.9 mM | MBC (E. coli ATCC 8739): 62.5 mM | MIC (S. aureus ATCC 29213): 93.8 mM | MBC (S. aureus ATCC 29213): 125 mM | MIC [2]: 62.5 mM | MBC [2]: 93.8 mM

C[N+](C)(C)CCO.N[C@@H](CO)C(=O)[O-] [[Ch][Ser]]
MIC [1]: 46.9 mM | MBC [1]: 62.5 mM | MIC (E. coli ATCC 8739): 31.3 mM | MBC (E. coli ATCC 8739): 62.5 mM | MIC (S. aureus ATCC 29213): 125 mM | MBC (S. aureus ATCC 29213): 250 mM | MIC [2]: 93.8 mM | MBC [2]: 125 mM

C[C@@H](O)[C@H](N)C(=O)[O-].C[N+](C)(C)CCO [[Ch][Thr]]
MIC [1]: 46.9 mM | MBC [1]: 62.5 mM | MIC (E. coli ATCC 8739): 31.3 mM | MBC (E. coli ATCC 8739): 62.5 mM | MIC (S. aureus ATCC 29213): 125 mM | MBC (S. aureus ATCC 29213): 250 mM | MIC [2]: 93.8 mM | MBC [2]: 125 mM
